Series [1] addresses T1, Transient receptor potential cation channel subfamily V member 1 (Homo sapiens, UniProt Q8NER1). As to the kind of experiment: Agonist activity at human TRPV1 overexpressed in HEK293 cells incubated for 1 hr by Fluo-4 AM dye based microscopic analysis. The class given is cell-based.
Series [2] in a line: Toxicity in Kunming mouse assessed as decrease in core body temperature at 50 mg/kg measured after 15 mins. Type of series: organism-based. The conditions noted are these: in vivo, 0.25 h.
Series [3] can be described thus: Toxicity in Kunming mouse assessed as decrease in core body temperature at 50 mg/kg measured upto hrs. Type of series: organism-based. The conditions noted are these: in vivo.
For series [4], the target named is T1, Transient receptor potential cation channel subfamily V member 1. Kind of series: Binding affinity to human TRPV1 assessed as dissociation constant by SPR analysis.

T1 sequence (Q8NER1 whole entry): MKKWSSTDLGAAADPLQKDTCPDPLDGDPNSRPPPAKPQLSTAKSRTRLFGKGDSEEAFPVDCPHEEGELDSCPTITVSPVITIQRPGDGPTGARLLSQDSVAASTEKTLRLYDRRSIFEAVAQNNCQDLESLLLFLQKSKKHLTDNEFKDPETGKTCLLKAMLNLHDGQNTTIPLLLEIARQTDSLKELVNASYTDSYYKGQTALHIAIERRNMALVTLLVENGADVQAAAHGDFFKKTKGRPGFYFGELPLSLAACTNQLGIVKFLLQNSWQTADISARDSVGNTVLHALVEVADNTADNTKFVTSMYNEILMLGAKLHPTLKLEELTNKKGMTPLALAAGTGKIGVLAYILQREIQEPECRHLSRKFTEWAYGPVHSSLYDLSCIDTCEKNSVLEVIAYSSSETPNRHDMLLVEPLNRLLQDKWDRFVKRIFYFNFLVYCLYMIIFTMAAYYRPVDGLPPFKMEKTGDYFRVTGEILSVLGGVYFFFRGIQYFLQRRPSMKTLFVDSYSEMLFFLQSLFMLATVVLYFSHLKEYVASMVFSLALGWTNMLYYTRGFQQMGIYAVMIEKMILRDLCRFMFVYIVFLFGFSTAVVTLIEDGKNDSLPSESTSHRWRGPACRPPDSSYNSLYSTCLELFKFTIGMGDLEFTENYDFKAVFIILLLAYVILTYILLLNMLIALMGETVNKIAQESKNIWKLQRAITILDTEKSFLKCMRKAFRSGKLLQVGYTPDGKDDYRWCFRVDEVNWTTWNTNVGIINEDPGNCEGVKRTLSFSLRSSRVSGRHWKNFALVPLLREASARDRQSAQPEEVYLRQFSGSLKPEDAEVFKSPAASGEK

As to `CCCCCc1cc(O)c(NS(=O)(=O)c2cccc(C(F)(F)F)c2)c(O)c1`, in series [1], the EC50 worked out at 10.4 µM.

In series [1], `CCCCCc1cc(O)c(NC(=O)Nc2cccc3ncccc23)c(O)c1` registered an EC50 of 40.5 µM.

With `COc1ccc(COC(=O)CCc2cc(O)c(NS(=O)(=O)c3cc(F)cc(F)c3)c(O)c2)cc1OC`, in series [2], the Activity result is listed as “Toxic”.

`COc1cc(COC(=O)CCc2cc(O)c(NS(=O)(=O)c3cc(F)cc(F)c3)c(O)c2)ccc1O`: the Activity result in series [3] is recorded as “Non-Toxic”.

With `C=C(C)[C@@H]1CCC(C)=C[C@H]1c1c(O)cc(CCCCC)cc1O` [CANNABIDIOL], in series [4], the Kd worked out at 110 µM. For the same compound, the Activity entry in series [3] is on record as “Non-Toxic”. Further, the EC50 in series [1] amounted to 38.5 µM.

`CCCCCc1cc(O)c(NS(=O)(=O)c2cccc3cccnc23)c(O)c1` gave a concentration for a half-maximal effect (EC50) in series [1] of 36.4 µM.

Regarding `CCCCCc1cc(O)c(NS(=O)(=O)c2cc(F)cc(F)c2)c(O)c1`, in series [1], the midpoint of the response, the EC50, lay at 39.8 µM.

`CCCCCc1cc(O)c(NS(=O)(=O)c2ccc(-c3ccccc3)cc2)c(O)c1` displayed an EC50 in series [1] of 4.42 µM.

In turn, `CCCCCc1cc(O)c(NC(=O)c2ccc(=O)oc2)c(O)c1` came in with a concentration giving a half-maximal response (EC50) in series [1] of 71.2 µM.

Source of the values: ChEMBL document CHEMBL5325459, “Design, synthesis, and analgesia evaluation of novel Transient Receptor Potential Vanilloid 1 (TRPV1) agonists modified from Cannabidiol (CBD)” (Bioorg Med Chem, 2023).
